ChEMBL document CHEMBL1158734, “Chemical conversion of nocathiacin I to nocathiacin II and a lactone analogue of glycothiohexide alpha” (2005)
Converted amounts (≈) assume the structure as drawn.

Columns and labels:
Format in all cases: functional
Staphylococcus aureus [1] = test: Antibacterial activity against Staphylococcus aureus A15090
Staphylococcus aureus [2] = test: Protective activity against Staphylococcus aureus A15090 infected in sc dosed mouse; conditions: read-out: PD50
Streptococcus pneumoniae = test: Antibacterial activity against Streptococcus pneumoniae A28272
Enterococcus faecalis = test: Antibacterial activity against Enterococcus faecalis A20688

## CO/C(C)=C1/NC(=O)[C@H]([C@@H](C)O)NC(=O)c2csc(n2)-c2cc(O)c(-c3nc(C(N)=O)cs3)nc2-c2csc(n2)[C@@H]2COC(=O)c3[nH]c4cccc5c4c3CO[C@H]([C@H](O[C@H]3C[C@](C)(O)[C@H](N(C)C)[C@H](C)O3)C(=O)OC5)[C@H](NC(=O)c3csc1n3)c1nc(cs1)C(=O)N2 [THIAZOMYCIN C]
Staphylococcus aureus [1]
  MIC: 60 ng/mL (≈ 44.4 nM)
Staphylococcus aureus [2]
  ED50: 4.35 mg/kg
Streptococcus pneumoniae
  MIC: 30 ng/mL (≈ 22.2 nM)
Enterococcus faecalis
  MIC: 125 ng/mL (≈ 92.4 nM)

## CO/C(C)=C1/NC(=O)[C@H]([C@@H](C)O)NC(=O)c2csc(n2)-c2cc(O)c(-c3nc(C(N)=O)cs3)nc2-c2csc(n2)[C@@H]2COC(=O)c3c4c5c(cccc5n3O)COC(=O)[C@@H](O[C@H]3C[C@](C)(O)[C@H](N(C)C)[C@H](C)O3)[C@@H](OC4)[C@H](NC(=O)c3csc1n3)c1nc(cs1)C(=O)N2 [NOCATHIACIN IV]
Staphylococcus aureus [1]
  MIC: 3 ng/mL (≈ 2.19 nM)
Staphylococcus aureus [2]
  ED50: 1.07 mg/kg
Streptococcus pneumoniae
  MIC: 1 ng/mL (≈ 0.731 nM)
Enterococcus faecalis
  MIC: 7 ng/mL (≈ 5.12 nM)

## C=C(NC(=O)c1csc(-c2nc3c(cc2O)-c2nc(cs2)C(=O)N[C@@H]([C@@H](C)O)C(=O)N/C(=C(\C)OC)c2nc(cs2)C(=O)N[C@@H]2c4nc(cs4)C(=O)N[C@@H](COC(=O)c4c5c6c(cccc6n4O)COC(=O)[C@@H](O[C@H]4C[C@](C)(O)[C@H](N(C)C)[C@H](C)O4)[C@H]2OC5)c2nc-3cs2)n1)C(N)=O [MJ347-81F4 A]
Staphylococcus aureus [1]
  MIC: 7 ng/mL (≈ 4.87 nM)
Staphylococcus aureus [2]
  ED50: 0.31 mg/kg
Streptococcus pneumoniae
  MIC: 2 ng/mL (≈ 1.39 nM)
Enterococcus faecalis
  MIC: 30 ng/mL (≈ 20.9 nM)

## C=C(NC(=O)c1csc(-c2nc3c(cc2O)-c2nc(cs2)C(=O)N[C@@H]([C@@H](C)O)C(=O)N/C(=C(\C)OC)c2nc(cs2)C(=O)N[C@@H]2c4nc(cs4)C(=O)N[C@@H](COC(=O)c4[nH]c5cccc6c5c4CO[C@@H]2[C@H](O[C@H]2C[C@](C)(O)[C@H](N(C)C)[C@H](C)O2)C(=O)OC6)c2nc-3cs2)n1)C(N)=O [NOCATHIACIN II]
Staphylococcus aureus [1]
  MIC: 7 ng/mL (≈ 4.92 nM)
Staphylococcus aureus [2]
  ED50: < 0.62 mg/kg
Streptococcus pneumoniae
  MIC: 0.5 ng/mL (≈ 0.352 nM)
Enterococcus faecalis
  MIC: 150 ng/mL (≈ 106 nM)
